Test results from patent US10933061B2 (Shepherd Therapeutics, Inc., priority 2017, dated 2021).
Several values for one entry are separate records, joined by “and”; a condition that tells them apart may be missing. Equal entries are not always repeated. Where two headings read alike, the source gives them in different places.

Legend:
[1] = tested on: GIST-1 gastrointestinal stromal tumor cells; assay: Chou-Talalay combination assay, Cell Titer Glo; type: cell-based; conditions: combination with pyrvinium pamoate, 72 hour incubation
Description: (§1) Following a 72 hour incubation, cell viability was determined using Cell Titer Glo.

[2] = tested on: DMS-114 small cell lung carcinoma cells; assay: Chou-Talalay combination assay, Cell Titer Glo; type: cell-based; conditions: 72 hour incubation; for CI range: combination with pyrvinium pamoate
Description: as §1

[3] = tested on: Hs766t pancreatic carcinoma cells; assay: Chou-Talalay combination assay, Cell Titer Glo; type: cell-based; conditions: 72 hour incubation; for CI range: combination with pyrvinium pamoate
Description: as §1

[4] = tested on: BxPC-3 pancreatic carcinoma cells; assay: Chou-Talalay combination assay, Cell Titer Glo; conditions: 72 hour incubation; for CI range: combination with pyrvinium pamoate
Description: as §1

[5] = tested on: CCC-5 cholangiocarcinoma cells; assay: Chou-Talalay combination assay, Cell Titer Glo; type: cell-based; conditions: 72 hour incubation; for CI range: combination with pyrvinium pamoate
Description: as §1

[6] = tested on: IMR-32 neuroblastoma cells; assay: Chou-Talalay combination assay, Cell Titer Glo; type: cell-based; conditions: combination with pyrvinium pamoate, 72 hour incubation
Description: as §1

[7] = tested on: SK-LMS-1 leiomyosarcoma cells; assay: Chou-Talalay combination assay, Cell Titer Glo; type: cell-based; conditions: combination with pyrvinium pamoate, 72 hour incubation
Description: as §1

[8] = tested on: COV362 ovarian carcinoma cells; assay: Chou-Talalay combination assay, Cell Titer Glo; type: cell-based; conditions: combination with pyrvinium pamoate, 72 hour incubation
Description: as §1

[9] = tested on: Rh30 rhabdomyosarcoma cells; assay: Chou-Talalay combination assay, Cell Titer Glo; type: cell-based; conditions: combination with pyrvinium pamoate, 72 hour incubation
Description: as §1

[10] = tested on: CHP-212 neuroblastoma cells; assay: Chou-Talalay combination assay, Cell Titer Glo; type: cell-based; conditions: 72 hour incubation; for CI range: combination with pyrvinium pamoate
Description: as §1

[11] = tested on: SW-1271 small cell lung carcinoma cells; assay: Chou-Talalay combination assay, Cell Titer Glo; type: cell-based; conditions: 72 hour incubation; for CI range: combination with pyrvinium pamoate
Description: as §1

[12] = tested on: TFK-1 cholangiocarcinoma cells; assay: Chou-Talalay combination assay, Cell Titer Glo; type: cell-based; conditions: 72 hour incubation; for CI range: combination with pyrvinium pamoate
Description: as §1

[13] = tested on: Rh41 rhabdomyosarcoma cells; assay: Chou-Talalay combination assay, Cell Titer Glo; type: cell-based; conditions: combination with pyrvinium pamoate, 72 hour incubation
Description: as §1

[14] = tested on: TC-71 Ewing's sarcoma cells; assay: Chou-Talalay combination assay, Cell Titer Glo; type: cell-based; conditions: 72 hour incubation; for CI range: combination with pyrvinium pamoate
Description: as §1

[15] = tested on: SW13 adrenocortical carcinoma cells; assay: Chou-Talalay combination assay, Cell Titer Glo; type: cell-based; conditions: 72 hour incubation; for CI range: combination with pyrvinium pamoate
Description: as §1

[16] = tested on: SK-UT-1 leiomyosarcoma cells; assay: Chou-Talalay combination assay, Cell Titer Glo; type: cell-based; conditions: 72 hour incubation; for CI range: combination with pyrvinium pamoate
Description: as §1

[17] = tested on: SK-N-AS neuroblastoma cells; assay: Chou-Talalay combination assay, Cell Titer Glo; type: cell-based; conditions: SK-N-AS; combination with pyrvinium pamoate; 72 hour incubation
Description: as §1

[18] = tested on: carcinoid tumor cell line STC-1; assay: Chou-Talalay combination assay, Cell Titer Glo; type: cell-based; conditions: combination with pyrvinium pamoate, 72 hour incubation
Description: as §1

[19] = tested on: SK-UT-1B leiomyosarcoma cells; assay: Chou-Talalay combination assay, Cell Titer Glo; type: cell-based; conditions: combination with pyrvinium pamoate, 72 hour incubation
Description: as §1

[20] = tested on: UM-Chor1 chordoma cell line; assay: Chou-Talalay combination assay, Cell Titer Glo; type: cell-based; conditions: combination with pyrvinium pamoate, 72 hour incubation
Description: as §1

[21] = tested on: Kato-III gastric carcinoma cells; assay: Chou-Talalay combination assay, Cell Titer Glo; type: cell-based
Description: as §1

[22] = tested on: TC-32 Ewing's sarcoma cells; assay: Chou-Talalay combination assay, Cell Titer Glo; type: cell-based; conditions: combination with pyrvinium pamoate, 72 hour incubation
Description: as §1

[23] = tested on: NCI-H295R adrenocortical carcinoma cells; assay: Chou-Talalay combination assay, Cell Titer Glo; type: cell-based; conditions: combination with pyrvinium pamoate, 72 hour incubation
Description: as §1

[24] = tested on: TOV-112D ovarian carcinoma cells; assay: Chou-Talalay combination assay, Cell Titer Glo; type: cell-based; conditions: 72 hour incubation; for CI range: combination with pyrvinium pamoate
Description: as §1

[25] = tested on: PC12 pheochromocytoma/paraganglioma cells; conditions: combination with pyrvinium pamoate, 72 hour incubation
Description: as §1

[26] = tested on: SNU-16 gastric carcinoma cells; assay: Chou-Talalay combination assay, Cell Titer Glo; type: cell-based; conditions: 72 hour incubation; for CI range: combination with pyrvinium pamoate
Description: as §1

LO-68 mesothelioma cells = assay: Chou-Talalay combination assay, Cell Titer Glo; type: cell-based; conditions: combination with pyrvinium pamoate, 72 hour incubation
Description: as §1

[27] = tested on: SKOV-3 ovarian carcinoma cells; assay: Chou-Talalay combination assay, Cell Titer Glo; type: cell-based; conditions: combination with pyrvinium pamoate, 72 hour incubation
Description: as §1

JU-77 mesothelioma cells = assay: Chou-Talalay combination assay, Cell Titer Glo; type: cell-based; conditions: combination with pyrvinium pamoate, 72 hour incubation
Description: as §1

[28] = tested on: Colo-205 colorectal carcinoma cells; assay: Chou-Talalay combination assay, Cell Titer Glo; type: cell-based; conditions: combination with pyrvinium pamoate, 72 hour incubation
Description: as §1

[29] = tested on: HCT116 colorectal carcinoma cells; assay: Chou-Talalay combination assay, Cell Titer Glo; type: cell-based; conditions: combination with pyrvinium pamoate, 72 hour incubation
Description: as §1

[30] = tested on: HepG2-C3A hepatocellular carcinoma cells; assay: Chou-Talalay combination assay, Cell Titer Glo; conditions: combination with pyrvinium pamoate, 72 hour incubation
Description: as §1

[31] = tested on: HepG2 hepatocellular carcinoma cells; assay: Chou-Talalay combination assay, Cell Titer Glo; conditions: combination with pyrvinium pamoate, 72 hour incubation
Description: as §1

[32] = tested on: Flo-1 esophageal carcinoma cells; assay: Chou-Talalay combination assay, Cell Titer Glo; type: cell-based; conditions: 72 hour incubation
Description: as §1

[33] = tested on: OE-33 esophageal carcinoma cells; assay: Chou-Talalay combination assay, Cell Titer Glo; type: cell-based; conditions: combination with pyrvinium pamoate, 72 hour incubation
Description: as §1

[34] = tested on: rare cancer tumor cell lines; assay: Cell viability, panel of rare cancer tumor cell lines; type: cell-based
Description: In all cases, including those described below, the viable cells were determined using the CellTiter Glo® kit and a dose response curve to calculate the IC50 was generated using the PRISM software.

[35] = Kato-III, combination with pyrvinium pamoate, 72 hour incubation

Structure (SMILES)	CI range [1]	CI range [3]	CI range [4]	CI range [5]	CI range [7]	CI range [8]	CI range [9]	CI range [10]	CI range [12]	CI range [13]	CI range [14]	CI range [15]	CI range [17]	CI range [18]	CI range [19]	CI range [20]	CI range [21, 35]	CI range [22]	CI range [23]	CI range [24]	further results
CCN1CCN(Cc2ccc(Nc3ncc(F)c(-c4cc(F)c5nc(C)n(C(C)C)c5c4)n3)nc2)CC1 [Abemaciclib]	0.249-0.699	0.587-0.863 and 0.304-0.879	0.417-0.895	0.628-0.841	0.350-0.808	0.144-0.714	0.148-0.886	0.076-0.772	0.522-0.884												CI range [2]: 0.327-0.876; CI range [6]: (0.485-0.860); CI range [11]: 0.183-0.889
N.N.[Cl][Pt][Cl] [Cisplatin]	0.177-0.732	0.458-0.875	0.459-0.775 and 0.472-0.882	0.326-0.892	0.014-0.783	0.443-0.859	0.693-0.877	0.694-0.756	0.058-0.361	0.130-0.874	0.329-0.832	0.309-0.886	0.130-0.882	0.506-0.861	0.407-0.742 and 0.337-0.809	0.468-0.887	0.386-0.842	0.588-0.878	0.314-0.798	0.439-0.845	CI range [2]: 0.572-0.883; Synergy with pyrvinium pamoate [16]: No; CI range [11]: 0.568-0.895
CN(C)/N=N/c1[nH]cnc1C(N)=O [Dacarbazine]																					CI range [25]: 0.550-0.818
COc1cccc2c1C(=O)c1c(O)c3c(c(O)c1C2=O)C[C@@](O)(C(=O)CO)C[C@@H]3O[C@H]1C[C@H](N)[C@H](O)[C@H](C)O1 [Doxorubicin]	0.169-0.883			0.341-0.805		0.021-0.895		0.696-0.812		0.145-0.834			Yes- (0.082-0.879)	0.807-0.890	0.352-0.739	0.423-0.875	Yes- (0.021-0.584)	0.424-0.872	0.185-0.872		CI range [26]: 0.614-0.878; Synergy with pyrvinium pamoate [14]: No; Synergy with pyrvinium pamoate [15]: No; CI range [16]: (0.556-0.858); CI range (LO-68 mesothelioma cells): 0.008-0.642; CI range [27]: (0.017-0.870); CI range (JU-77 mesothelioma cells): 0.444-0.889; Synergy with pyrvinium pamoate [12]: No; Synergy with pyrvinium pamoate [24]: No
COc1cc([C@@H]2c3cc4c(cc3[C@@H](O[C@@H]3O[C@@H]5CO[C@@H](C)O[C@H]5[C@H](O)[C@H]3O)[C@H]3COC(=O)[C@H]23)OCO4)cc(OC)c1O [Etoposide]								0.763-0.891			0.677-0.883	0.487-0.623	0.638-0.834	0.281-0.794				0.593-0.875	0.717-0.864		Synergy with pyrvinium pamoate [2]: No; Synergy with pyrvinium pamoate [11]: No; CI range [28]: 0.107-0.751; CI range [29]: 0.716-0.836
Nc1ccn([C@@H]2O[C@H](CO)[C@@H](O)C2(F)F)c(=O)n1 [Gemcitabine]		0.378-0.822	0.417-0.851	0.008-0.729	0.311-0.774				0.290-0.851						0.516-0.687						CI range [30]: 0.201-0.566; CI range [31]: 0.613-0.899; CI range [16]: (0.118-0.888); CI range (LO-68 mesothelioma cells): 0.047-0.871; CI range (JU-77 mesothelioma cells): 0.404-0.725
CCc1c2c(nc3ccc(OC(=O)N4CCC(N5CCCCC5)CC4)cc13)-c1cc3c(c(=O)n1C2)COC(=O)[C@]3(O)CC [Irinotecan]	0.039-0.837				0.362-0.885	0.445-0.697	0.324-0.872	0.719-0.891		0.068-0.711	0.466-0.803	0.652-0.827			0.235-0.705	0.580-0.772	0.258-0.892	0.612-0.764	0.285-0.855	0.414-0.760	Synergy with pyrvinium pamoate [26]: No; Synergy with pyrvinium pamoate [4]: No; Synergy with pyrvinium pamoate [32]: No; Synergy with pyrvinium pamoate [16]: No; CI range [28]: 0.158-0.866; CI range [29]: 0.582-0.878; CI range [33]: 0.438-0.783
O=C1[O][Pt]2([NH][C@@H]3CCCC[C@H]3[NH]2)[O]C1=O [Oxaliplatin]		0.340-0.884	0.254-0.802																		CI range [30]: 0.307-0.870; CI range [26]: 0.083-0.831 and 0.089-0.851; CI range [31]: 0.354-0.865; CI range ([32]; combination with pyrvinium pamoate): 0.558-0.871; CI range [21]: Yes- (0.384-0.781); CI range [29]: 0.375-0.889; CI range [33]: 0.447-0.703
CC[C@]1(O)C[C@H]2CN(CCc3c([nH]c4ccccc34)[C@@](C(=O)OC)(c3cc4c(cc3OC)N(C=O)[C@H]3[C@@](O)(C(=O)OC)[C@H](OC(C)=O)[C@]5(CC)C=CCN6CC[C@]43[C@@H]65)C2)C1 [Vincristine]	0.231-0.756 and 0.150-0.772		0.347-0.869		0.163-0.831	0.432-0.825	0.477-0.883		0.453-0.827	0.284-0.876	0.251-0.898	0.499-0.875		0.036-0.854		0.249-0.560		0.659-0.869	0.752-0.827	0.477-0.858	Synergy with pyrvinium pamoate [3]: No; Synergy with pyrvinium pamoate [5]: No; CI range [25]: 0.614-0.841; Synergy with pyrvinium pamoate [10]: No
Cc1cc(/C=C/c2ccc3cc(N(C)C)ccc3[n+]2C)c(C)n1-c1ccccc1 [pyrvinium pamoate, 3-carboxy-1-[(3-carboxy-2-oxidonaphthalen-1-yl)methyl]naphthalen-2-olate;2-[(E)-2-(2,5-dimethyl-1-phenylpyrrol-3-yl)ethenyl]-N,N,1-trimethylquinolin-1-ium-6-amine]																					growth of multiple rare cancer cell lines ([34]; FIG. 14): inhibits growth; IC50 ([34]; several rare cancer tumor cell lines, 72 hours, read-out: IC50s ranging): 2 to 1000 nM
